Test results taken from patent US20080119412A1, “Polypeptides for Modulating Binding of Trp Channel Proteins and Trp- Associated Proteins” (NoNO Inc., priority 2003, published 2008).
Residues, ends and D or L forms follow the SMILES beside them. No end group written: not given here. *: point of attachment. Biotin = O=C1N[C@H]2[C@H](CS[C@H]2CCCCC(=O)*)N1

Columns and labels:
INADL d3 = molecular target: T1, INADL d3 (Homo sapiens, UniProt Q8NI35); test: G3 assay titration, GST-PDZ fusion / biotinylated peptide; type: binding
T1 construct: made in house; host or cells: E. coli (DH5alpha, BL21 or JM109)
T1 sequence (Q8NI35 with tags, fused parts or gaps): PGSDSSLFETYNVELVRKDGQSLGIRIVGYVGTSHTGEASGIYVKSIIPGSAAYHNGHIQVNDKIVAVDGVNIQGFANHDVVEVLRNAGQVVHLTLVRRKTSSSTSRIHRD
Method: (§1) The G3 assay is identical to the G0 assay with the following exceptions. The peptides are typically present at 0.1 μM rather than 20 μM. The peptides are also pre-incubated with the HRP-streptavidin prior to adding to the assay plate. In the G0 assay, free peptide is incubated with the PDZ proteins prior to the addition of the HRP-streptavidin. Thus, for the G0 assay one can lose signal if the bound peptide dissociates from the PDZ protein prior to the addition of the HRP-streptavidin. In the G3 modified assay the HRP-streptavidin/peptide complex is added to the plate in one step, thus increasing the likelihood that all the bound peptide will be bound to HRP-streptavidin. The G3 modified assay increases the chance of observing weak interactions.
(§2) This example describes assays to identify binding between TRPM7 and PDZ domains. GST-PDZ fusions are produced that each contain an entire PDZ domain (or multiple PDZ domains), the collection encompassing approximately 90% of all PDZ domains identified in the human genome. (See Table 5 and Section V (PDZ Proteins and PL Protein Interactions Disclosure). Biotinylated peptide corresponding to 11 residues of Tat coupled to the C-terminal 9 amino acids of TRPM7 ([…]; SEQ ID NO:258) is synthesized and purified by HPLC.
(§3) • Nunc MaxiSorp 96 well Immuno-plate, Nunc • PBS pH 7.4 (phosphate buffered saline, 8 g NaCl, 0.29 g KCl, 1.44 g Na2HPO4, 0.24 g KH2PO4, add H2O to 1 liter and pH 7.4; 0.2 μm filter) • Assay Buffer: 2% BSA in PBS (20 g of bovine serum albumin per liter PBS, fraction V, ICN Biomedicals, cat#IC15142983 • Goat anti-GST polyclonal Ab, stock 5 mg/ml, stored at 4° C., Amersham Pharmacia cat#27-4577-01 • Dilute 1:1000 in PBS, final concentration 5 μg/ml. • HRP-Streptavidin, 2.5 mg/2 ml stock stored at 4° C., Zymed cat#43-4323, dilute 1:2000 into Assay buffer, final concentration of […] • Wash Buffer, PBS • Biotinylated peptides (HPLC purified, stock solution stored in −20° C. freezer) • GST-PRISM proteins (stock stored at −80° C., after 1st thaw store in −10° C. freezer) • TMB (3,3′,5,5′, teramethylbensidine), tablets, Sigma cat.#T5525 • Per plate, dissolve 1 tablet in 1 ml DMSO, add 9 ml Citrate/Phosphate buffer pH 5.4 and 2 μL H2O2 • 0.1 M H2SO4, Sigma cat.#S1526 • 12-w multichannel pipettor & tips • 50 ml reagent reservoirs, Costar#4870 • 50, 15 ml polypropylene conical tubes • Costar Transtar 96 Costar #7605 • Transtar 96 Cartridge Costar #7610 • Molecular Devices microplate reader (450 & 650 nm filters) with SoftMax Pro software *When using reagents stored at or 4° C. or −20° C., remove & keep on ice
(§4) • 1. Coat plate with 100 μl of 5 μg/ml anti-GST, overnight at 4° C. • 2. Dump contents of plate & out tap dry on paper towels • 3. Block with 200 μl Assay Buffer for 2 hrs at room temperature • 4. Prepare proteins at 5 μg/ml in Assay Buffer • 5. Wash 3× with cold PBS (4° C.), avoiding letting the plates dry out • 6. Add proteins at 50 μl per well, incubate 1 to 2 hrs at 4° C. • 7. Prepare peptides to desired concentration in Assay Buffer • 8. Wash 3× with cold PBS (4° C.), avoiding letting the plates dry out • 9. Add HRP-Streptavidin/peptide complex [prepared by incubating for 20 minutes at room temperature HRP-Streptavidin (1:2000) with the desired biotin-peptide concentration for 20 minutes at room temperature] at 50 μl per well on ice • 10. Place at room temperature for exactly 30 minutes • 11. Promptly wash 5× with PBS at room temperature • 12. Add 100 μl/well TMB substrate (write time on plate) • 13. Incubate in dark at room temperature for a maximum of 30 minutes • 14. Read plate at 25 minutes (650 nm), optional • 15. Stop reaction with 100 μl of 0.18 M H2SO4, 30 minutes after adding TMB • Take last reading at 450 nm soon after stopping reaction
(§5) The G3 assay was performed using 0.1 μM peptide representing 11 amino acids of Tat fused to the final 9 amino acids of TRPM7 ([…]; SEQ ID NO:258). […]

ZO-1 d2 = molecular target: T2, ZO-1 d2 (Homo sapiens, UniProt Q07157, DEL264-264); test: as above; type: binding
T2 construct: made in house; host or cells: E. coli (DH5alpha, BL21 or JM109)
T2 sequence (Q07157 with tags, fused parts or gaps DEL264-264): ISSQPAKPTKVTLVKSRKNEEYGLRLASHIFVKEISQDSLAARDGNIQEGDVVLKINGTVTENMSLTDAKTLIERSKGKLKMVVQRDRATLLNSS
Method: as §1, §2, §3, §4, §5

Compound | EC50 (INADL d3) [µM] | EC50 (ZO-1 d2) [µM] | ODmax (450 nm) (INADL d3; Table 10, titration of peptides with INADL d3)
CC[C@H](C)[C@H](NC(=O)[C@@H](NC(=O)[C@H](CCCNC(=N)N)NC(=O)[C@H](CC(=O)O)NC(=O)[C@H](CO)NC(=O)[C@H](CCCNC(=N)N)NC(=O)[C@H](C)NC(=O)[C@H](CCCNC(=N)N)NC(=O)[C@H](CCCNC(=N)N)NC(=O)[C@H](CCCNC(=N)N)NC(=O)[C@H](CCC(N)=O)NC(=O)[C@H](CCCNC(=N)N)NC(=O)[C@H](CCCNC(=N)N)NC(=O)[C@H](CCCCN)NC(=O)[C@H](CCCCN)NC(=O)[C@H](CCCNC(=N)N)NC(=O)CNC(=O)[C@H](Cc1ccc(O)cc1)NC(=O)CCCC[C@@H]1SC[C@@H]2NC(=O)N[C@@H]21)[C@@H](C)O)C(=O)N[C@H](C(=O)N[C@@H](C)C(=O)O)[C@@H](C)CC [Peptide 1830] (Biotin-YGRKKRRQRRRARSDRTIIA-OH) | < 2 | < 0.02 | –
CC(C)[C@H](NC(=O)[C@H](CCC(=O)O)NC(=O)[C@@H](NC(=O)[C@H](CCCCN)NC(=O)[C@H](CCCNC(=N)N)NC(=O)[C@H](CC(=O)O)NC(=O)[C@@H](NC(=O)[C@H](CCCNC(=N)N)NC(=O)[C@H](C)NC(=O)[C@H](CCCNC(=N)N)NC(=O)[C@H](CCCNC(=N)N)NC(=O)[C@H](CCCNC(=N)N)NC(=O)[C@H](CCC(N)=O)NC(=O)[C@H](CCCNC(=N)N)NC(=O)[C@H](CCCNC(=N)N)NC(=O)[C@H](CCCCN)NC(=O)[C@H](CCCCN)NC(=O)[C@H](CCCNC(=N)N)NC(=O)CNC(=O)[C@H](Cc1ccc(O)cc1)NC(=O)CCCC[C@@H]1SC[C@@H]2NC(=O)N[C@@H]21)[C@@H](C)O)C(C)C)C(=O)O [Peptide 1837] (Biotin-YGRKKRRQRRRARTDRKVEV-OH) | – | < 0.02 | –
CC[C@H](C)[C@H](NC(=O)[C@H](Cc1ccc(O)cc1)NC(=O)[C@H](CCCCN)NC(=O)[C@H](CCCNC(=N)N)NC(=O)[C@H](CC(=O)O)NC(=O)CNC(=O)[C@H](CCCNC(=N)N)NC(=O)[C@H](C)NC(=O)[C@H](CCCNC(=N)N)NC(=O)[C@H](CCCNC(=N)N)NC(=O)[C@H](CCCNC(=N)N)NC(=O)[C@H](CCC(N)=O)NC(=O)[C@H](CCCNC(=N)N)NC(=O)[C@H](CCCNC(=N)N)NC(=O)[C@H](CCCCN)NC(=O)[C@H](CCCCN)NC(=O)[C@H](CCCNC(=N)N)NC(=O)CNC(=O)[C@H](Cc1ccc(O)cc1)NC(=O)CCCC[C@@H]1SC[C@@H]2NC(=O)N[C@@H]21)C(=O)N[C@H](C(=O)O)C(C)C [Peptide 1838] (Biotin-YGRKKRRQRRRARGDRKYIV-OH) | < 0.1 | < 0.1 | –
CC(C)[C@H](NC(=O)[C@@H]1CCCN1C(=O)[C@@H](NC(=O)[C@H](CCCCN)NC(=O)[C@H](CCCNC(=N)N)NC(=O)[C@H](CC(=O)O)NC(=O)CNC(=O)[C@H](CCCNC(=N)N)NC(=O)[C@H](C)NC(=O)[C@H](CCCNC(=N)N)NC(=O)[C@H](CCCNC(=N)N)NC(=O)[C@H](CCCNC(=N)N)NC(=O)[C@H](CCC(N)=O)NC(=O)[C@H](CCCNC(=N)N)NC(=O)[C@H](CCCNC(=N)N)NC(=O)[C@H](CCCCN)NC(=O)[C@H](CCCCN)NC(=O)[C@H](CCCNC(=N)N)NC(=O)CNC(=O)[C@H](Cc1ccc(O)cc1)NC(=O)CCCC[C@@H]1SC[C@@H]2NC(=O)N[C@@H]21)C(C)C)C(=O)O [Peptide 1841] (Biotin-YGRKKRRQRRRARGDRKVPV-OH) | – | < 0.02 | –
CC(C)C[C@H](NC(=O)[C@H](CCCNC(=N)N)NC(=O)[C@@H](NC(=O)CNC(=O)[C@H](CCCNC(=N)N)NC(=O)[C@H](C)NC(=O)[C@H](CCCNC(=N)N)NC(=O)[C@H](CCCNC(=N)N)NC(=O)[C@H](CCCNC(=N)N)NC(=O)[C@H](CCC(N)=O)NC(=O)[C@H](CCCNC(=N)N)NC(=O)[C@H](CCCNC(=N)N)NC(=O)[C@H](CCCCN)NC(=O)[C@H](CCCCN)NC(=O)[C@H](CCCNC(=N)N)NC(=O)CNC(=O)[C@H](Cc1ccc(O)cc1)NC(=O)CCCC[C@@H]1SC[C@@H]2NC(=O)N[C@@H]21)[C@@H](C)O)C(=O)N[C@H](C(=O)N[C@@H](Cc1c[nH]c2ccccc12)C(=O)N[C@H](C(=O)O)C(C)C)C(C)C [Peptide 1844] (Biotin-YGRKKRRQRRRARGTRLVWV-OH) | < 0.02 | < 0.02 | –
CC[C@H](C)[C@H](NC(=O)[C@H](CCCNC(=N)N)NC(=O)[C@H](Cc1ccc(O)cc1)NC(=O)[C@H](CCCNC(=N)N)NC(=O)[C@H](CC(=O)O)NC(=O)CNC(=O)[C@H](CCCNC(=N)N)NC(=O)[C@H](C)NC(=O)[C@H](CCCNC(=N)N)NC(=O)[C@H](CCCNC(=N)N)NC(=O)[C@H](CCCNC(=N)N)NC(=O)[C@H](CCC(N)=O)NC(=O)[C@H](CCCNC(=N)N)NC(=O)[C@H](CCCNC(=N)N)NC(=O)[C@H](CCCCN)NC(=O)[C@H](CCCCN)NC(=O)[C@H](CCCNC(=N)N)NC(=O)CNC(=O)[C@H](Cc1ccc(O)cc1)NC(=O)CCCC[C@@H]1SC[C@@H]2NC(=O)N[C@@H]21)C(=O)N[C@H](C(=O)O)C(C)C [Peptide 1845] (Biotin-YGRKKRRQRRRARGDRYRIV-OH) | < 0.1 | < 0.1 | –
CC[C@H](C)[C@H](NC(=O)[C@@H](NC(=O)[C@H](CCCNC(=N)N)NC(=O)[C@H](CC(=O)O)NC(=O)CNC(=O)[C@H](CCCNC(=N)N)NC(=O)[C@H](C)NC(=O)[C@H](CCCNC(=N)N)NC(=O)[C@H](CCCNC(=N)N)NC(=O)[C@H](CCCNC(=N)N)NC(=O)[C@H](CCC(N)=O)NC(=O)[C@H](CCCNC(=N)N)NC(=O)[C@H](CCCNC(=N)N)NC(=O)[C@H](CCCCN)NC(=O)[C@H](CCCCN)NC(=O)[C@H](CCCNC(=N)N)NC(=O)CNC(=O)[C@H](Cc1ccc(O)cc1)NC(=O)CCCC[C@@H]1SC[C@@H]2NC(=O)N[C@@H]21)[C@@H](C)O)C(=O)N[C@H](C(=O)N[C@@H](Cc1ccc(O)cc1)C(=O)O)[C@@H](C)CC [Peptide 1848] (Biotin-YGRKKRRQRRRARGDRTIIY-OH) | < 2 | < 0.02 | –
CC(C)[C@H](NC(=O)[C@H](Cc1c[nH]c2ccccc12)NC(=O)[C@@H](NC(=O)[C@H](CCC(=O)O)NC(=O)[C@H](CCCNC(=N)N)NC(=O)[C@H](CCCNC(=N)N)NC(=O)CNC(=O)[C@H](CCCNC(=N)N)NC(=O)[C@H](C)NC(=O)[C@H](CCCNC(=N)N)NC(=O)[C@H](CCCNC(=N)N)NC(=O)[C@H](CCCNC(=N)N)NC(=O)[C@H](CCC(N)=O)NC(=O)[C@H](CCCNC(=N)N)NC(=O)[C@H](CCCNC(=N)N)NC(=O)[C@H](CCCCN)NC(=O)[C@H](CCCCN)NC(=O)[C@H](CCCNC(=N)N)NC(=O)CNC(=O)[C@H](Cc1ccc(O)cc1)NC(=O)CCCC[C@@H]1SC[C@@H]2NC(=O)N[C@@H]21)[C@@H](C)O)C(=O)O [Peptide 1854] (Biotin-YGRKKRRQRRRARGRRETWV-OH) | < 0.02 | – | –
Biotin-YGRKKRRQRRRSRTDRLEYV [Peptide 1846] | – | – | 1.50
